Test results reported in US20260364089A1, “PYRIDOPYRIMIDINE KRAS INHIBITORS” (Treeline Biosciences, Inc., priority 2022, published 2026).
Where two headings read alike, the source gives them in different places.

Biological target: T1, KRas G12V (Homo sapiens, UniProt P01116, G12V)
T1 construct: Biotinylated KRas G12V (aa 1-169) loaded with GDP nucleotide; biotin (biotinylated)
Experiment: SOS1-Catalyzed Nucleotide Exchange Assay, KRas G12V (Method 2)
Assay type: biochemical
Conditions: 5 nM KRas G12V (aa 1-169, GDP-loaded), 50 nM SOS1
Summary of the method: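 Biotinylated GDP-loaded KRas G12V (aa 1-169, 5 nM final) with SA-Eu, preincubated 30 min with compound, then SOS1 (50 nM) plus EDA-GTP-DY647P1 added; exchange ran 60-90 min in HEPES pH 7.4 buffer. 10-point curves, top 1, 10 or 100 μM; normalized data fit to four-parameter logistic.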

[1] = Method 2, B, read-out: KRas G12V IC50 (nM) (Method 2, B)
[2] = Method 2, A, read-out: KRas G12V IC50 (nM) (Method 2, A)

T1 sequence (P01116 1-169 G12V): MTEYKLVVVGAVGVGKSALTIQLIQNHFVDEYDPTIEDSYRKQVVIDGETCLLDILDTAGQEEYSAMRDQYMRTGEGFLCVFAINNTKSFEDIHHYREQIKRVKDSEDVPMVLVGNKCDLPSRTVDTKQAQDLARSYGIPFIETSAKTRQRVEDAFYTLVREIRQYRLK

| Structure (SMILES) | IC50 [1] [nM] | IC50 [2] [nM] |
| --- | --- | --- |
| O=C1CCCCc2ccc3[nH]ncc3c2-c2ncc3c(nc(OC[C@@]45CCCN4C[C@H](F)C5)nc3c2F)N2CCCC(CCN1)C2 (stereo partly drawn) [Compound 167a, 2^8-fluoro-2^2-(((2R,7aS)-2-fluorotetrahydro-1H-pyrrolizin-7a(5H)-yl)methoxy)-1^1H-6-aza-2(7,4)-pyrido[4,3-d]pyrimidina-1(4,5)-indazola-3(1,3)-piperidinacycloundecaphan-7-one] | ≤ 100 |  |
| O=C1CCCc2c(F)ccc3cccc(c23)-c2ncc3c(nc(OC[C@@]45CCCN4C[C@H](F)C5)nc3c2F)N2CCCC(CCN1)C2 (stereo partly drawn) [Compound 170a, 2^8,3^7-difluoro-2^2-(((2R,7aS)-2-fluorotetrahydro-1H-pyrrolizin-7a(5H)-yl)methoxy)-8-aza-2(4,7)-pyrido[4,3-d]pyrimidina-1(1,3)-piperidina-3(1,8)-naphthalenacyclodecaphan-7-one] | ≤ 100 |  |
| Nc1cc2c(cc1F)CCCCC(=O)NCCC1CCCN(C1)c1nc(OC[C@@]34CCCN3C[C@H](F)C4)nc3c(F)c-2ncc13 (stereo partly drawn) [Compound 159a, 3^5-amino-2^8,3^4-difluoro-2^2-(((2R,7aS)-2-fluorotetrahydro-1H-pyrrolizin-7a(5H)-yl)methoxy)-9-aza-2(4,7)-pyrido[4,3-d]pyrimidina-1(1,3)-piperidina-3(1,2)-benzenacycloundecaphan-8-one] |  | 1000 to 10000 |
| O=C1CCCc2c(F)ccc3cc(O)cc(c23)-c2ncc3c(nc(OC[C@@]45CCCN4C[C@H](F)C5)nc3c2F)N2CCCC(CN1)C2 (stereo partly drawn) [Compound 135a, 2^8,3^7-difluoro-2^2-(((2R,7aS)-2-fluorotetrahydro-1H-pyrrolizin-7a(5H)-yl)methoxy)-3^3-hydroxy-8-aza-2(4,7)-pyrido[4,3-d]pyrimidina-1(1,3)-piperidina-3(1,8)-naphthalenacyclononaphan-7-one] |  | ≤ 100 |
| Nc1cc(Cl)c2c(c1)-c1ncc3c(nc(OC[C@@]45CCCN4C[C@H](F)C5)nc3c1F)N1CCC(CCNC(=O)CCCC2)C1 (stereo partly drawn) [Compound 164a, 3^5-amino-3^3-chloro-2^8-fluoro-2^2-(((2R,7aS)-2-fluorotetrahydro-1H-pyrrolizin-7a(5H)-yl)methoxy)-9-aza-2(4,7)-pyrido[4,3-d]pyrimidina-1(1,3)-pyrrolidina-3(1,2)-benzenacycloundecaphan-8-one] | 1000 to 10000 |  |

More lines, now with the values ahead:

| IC50 [1] [nM] | IC50 [2] [nM] | Structure (SMILES) |
| --- | --- | --- |
| 100 to 1000 |  | CN1CCC[C@H]1CCOc1nc2c3cnc(c(F)c3n1)-c1cc(N)cc(Cl)c1CCCCC(=O)NCCC1CCCN2C1 (stereo partly drawn) [Compound 176a, 3^5-amino-3^3-chloro-2^8-fluoro-2^2-(2-((S)-1-methylpyrrolidin-2-yl)ethoxy)-9-aza-2(4,7)-pyrido[4,3-d]pyrimidina-1(1,3)-piperidina-3(1,2)-benzenacycloundecaphan-8-one] |
| 100 to 1000 |  | CN(C)CC1(COc2nc3c4cnc(c(F)c4n2)-c2cc(N)cc(Cl)c2CCCCC(=O)NCCC2CCCN3C2)CC1 (centres unmarked) [Compound 178, 3^5-amino-3^3-chloro-2^2-((1-((dimethylamino)methyl)cyclopropyl)methoxy)-2^8-fluoro-9-aza-2(4,7)-pyrido[4,3-d]pyrimidina-1(1,3)-piperidina-3(1,2)-benzenacycloundecaphan-8-one] |
| ≤ 100 | ≤ 100 | O=C1CCCc2c(F)ccc3cc(O)cc(c23)-c2ncc3c(nc(OC[C@@]45CCCN4C[C@H](F)C5)nc3c2F)N2CCOCC(CCN1)C2 (stereo partly drawn) [Compound 194a, 2^8,3^7-difluoro-2^2-(((2R,7aS)-2-fluorotetrahydro-1H-pyrrolizin-7a(5H)-yl)methoxy)-3^3-hydroxy-8-aza-1(4,6)-oxazepana-2(4,7)-pyrido[4,3-d]pyrimidina-3(1,8)-naphthalenacyclodecaphan-7-one] |
| ≤ 100 | ≤ 100 | O=C1CCCc2c(F)ccc3cc(O)cc(c23)-c2ccc3c(nc(OC[C@@]45CCCN4C[C@H](F)C5)nc3c2F)N2CCOCC(CCN1)C2 (stereo partly drawn) [Compound 195a, 2^8,3^7-difluoro-2^2-(((2R,7aS)-2-fluorotetrahydro-1H-pyrrolizin-7a(5H)-yl)methoxy)-3^3-hydroxy-8-aza-1(4,6)-oxazepana-2(4,7)-quinazolina-3(1,8)-naphthalenacyclodecaphan-7-one] |
